Results published in publication PMC11995724, “Antibiotic target discovery by integrated phenotypic and activity-based profiling of electrophilic fragments” (Cell chemical biology, 2025).
Where a name gives a salt, the structure may show the parent alone.

Assay: in vitro
Conditions: human, hek293t cells

Row | Compound | viability at 48 h, 25 µM
1 | CCOc1ccc(N2C(=O)C=CC2=O)cc1 [10-A14, 1-(4-ethoxyphenyl)-2,5-dihydro-1H-pyrrole-2,5-dione] | 4.27%
2 | CCn1nc(C)c(C(=O)CCl)n1 [10-P08, 2-chloro-1-(2-ethyl-5-methyl-2H-1,2,3-triazol-4-yl)ethan-1-one] | 27.2%
3 | N#CC(=Cc1ccc(-c2cccc([N+](=O)[O-])c2)s1)C(=O)NC1CC1 [9-G18, 2-cyano-N-cyclopropyl-3-[5-(3-nitrophenyl)thiophen-2-yl]prop-2-enamide] | 103%
4 | CC(Cl)C(=O)NC1(C(=O)Nc2ccccc2)CC1 (centres unmarked) [7-K14, 1-(2-chloropropanamido)-N-phenylcyclopropane-1-carboxamide] | 52%
5 | COc1cccc(NC(=O)C(C#N)=Cc2ccc(O)cc2)c1 [8-O17, 2-cyano-3-(4-hydroxyphenyl)-N-(3-methoxyphenyl)prop-2-enamide] | 82.7%
6 | C=CC(=O)NC1CCCN(c2cc(N3CCOCC3)ncn2)C1 (centres unmarked) [1-A08, N-{1-[6-(morpholin-4-yl)pyrimidin-4-yl]piperidin-3-yl}prop-2-enamide] | 103%
7 | C=CC(=O)Nc1cc(NC(=O)[C@@H]2CSCN2C(=O)CC)ccc1F [2-P18, (4R)-N-[4-fluoro-3-(prop-2-enamido)phenyl]-3-propanoyl-1,3-thiazolidine-4-carboxamide] | 91.2%
8 | Cc1ccc(C)c(NC(=O)C(C#N)=Cc2ccc(N3CCCCC3)o2)c1 [9-D12, 2-cyano-N-(2,5-dimethylphenyl)-3-[5-(piperidin-1-yl)furan-2-yl]prop-2-enamide] | 69.5%
9 | C=CC(=O)N1CCN(Cc2cc(=O)n3ccsc3n2)CC1 [3-F22, 7-{[4-(prop-2-enoyl)piperazin-1-yl]methyl}-5H-[1,3]thiazolo[3,2-a]pyrimidin-5-one] | 90.5%
10 | C=CC(=O)N(CC)CC(=O)N1CCn2c(nc(C)c2C)C1 [2-B18, N-(2-{2,3-dimethyl-5H,6H,7H,8H-imidazo[1,2-a]pyrazin-7-yl}-2-oxoethyl)-N-ethylprop-2-enamide] | 94.8%
11 | C=CC(=O)N(CC)c1cccc(C)c1 [1-A10, N-ethyl-N-(3-methylphenyl)prop-2-enamide] | 76.6%
12 | CCCn1c(C)cc(C=C(C#N)C(=O)N2CCCCC2)c1C [9-D11, 3-(2,5-dimethyl-1-propyl-1H-pyrrol-3-yl)-2-(piperidine-1-carbonyl)prop-2-enenitrile] | 106%
13 | C[C@@H](NC(=O)CCl)c1cnnn1C [7-F16, 2-chloro-N-[(1R)-1-(1-methyl-1H-1,2,3-triazol-5-yl)ethyl]acetamide] | 44.8%
14 | CC(Cl)C(=O)NCC1CN(c2nncs2)CCO1 (centres unmarked) [7-O03, 2-chloro-N-{[4-(1,3,4-thiadiazol-2-yl)morpholin-2-yl]methyl}propanamide] | 106%
15 | CC(Cl)C(=O)N(C)C(C)c1cccc(NC(=O)c2ccccc2)c1 (centres unmarked) [6-J14, N-{3-[1-(2-chloro-N-methylpropanamido)ethyl]phenyl}benzamide] | 111%
16 | CC(NC(=O)CCl)c1nc2c(s1)CCCCC2 (centres unmarked) [7-M22, 2-chloro-N-(1-{4H,5H,6H,7H,8H-cyclohepta[d][1,3]thiazol-2-yl}ethyl)acetamide] | 0.506%
17 | N#CC(=Cc1ccc2c(c1)OCCO2)C(=O)NCc1ccccc1 [8-H03, N-benzyl-2-cyano-3-(2,3-dihydro-1,4-benzodioxin-6-yl)prop-2-enamide] | 127%
18 | Cc1cccc(NC(=O)C(C#N)=Cc2cc(C)c(C)cc2C)c1 [8-C18, 2-cyano-N-(3-methylphenyl)-3-(2,4,5-trimethylphenyl)prop-2-enamide] | 92.9%
19 | O=C(CCl)Nc1ccc(OC(F)F)c(Cl)c1 [4-F14, 2-chloro-N-[3-chloro-4-(difluoromethoxy)phenyl]acetamide] | 0.982%
20 | C=CC(=O)N1CCC(c2ccc(OC)cc2)C1 (centres unmarked) [1-N16, 1-[3-(4-methoxyphenyl)pyrrolidin-1-yl]prop-2-en-1-one] | 92.1%
21 | C=CC(=O)NCC12CC3CC(CC(C3)C1)C2 [1-F17, N-[(adamantan-1-yl)methyl]prop-2-enamide] | 110%
22 | C=CC(=O)NCc1ccc(-n2ccc(C)n2)nc1 [3-H16, N-{[6-(3-methyl-1H-pyrazol-1-yl)pyridin-3-yl]methyl}prop-2-enamide] | 99.7%
23 | C=CC(=O)Nc1cc(C(=O)O)ccc1O [1-A12, 4-hydroxy-3-(prop-2-enamido)benzoic acid] | 75.1%
24 | O=C(CCl)NCCSc1ccc(Cl)cc1 [4-H17, 2-chloro-N-{2-[(4-chlorophenyl)sulfanyl]ethyl}acetamide] | 0.813%
25 | C=CC(=O)N(C)CC(=O)Nc1ccc(N2C[C@@H](C)O[C@@H](C)C2)cc1 [3-H08, N-[({4-[(2R,6S)-2,6-dimethylmorpholin-4-yl]phenyl}carbamoyl)methyl]-N-methylprop-2-enamide] | 94.9%
26 | Cc1ccc(CC(=O)CCl)cc1 [10-O13, 1-chloro-3-(4-methylphenyl)propan-2-one] | 67.6%
27 | CC(Cl)C(=O)N1C2CCC1CC1(C2)CC1(F)F (centres unmarked) [6-N18, 2-chloro-1-{2',2'-difluoro-8-azaspiro[bicyclo[3.2.1]octane-3,1'-cyclopropan]-8-yl}propan-1-one] | 112%

Row | Compound | viability at 48 h, 25 µM
28 | C=CC(NC(=O)CCl)C1CCOCC1 (centres unmarked) [5-N13, 2-chloro-N-[1-(oxan-4-yl)prop-2-en-1-yl]acetamide] | 111%
29 | CCOC(=O)c1ccc(NC(=O)CCl)cc1 [4-E17, ethyl 4-(2-chloroacetamido)benzoate] | 0.753%
30 | O=C(CCl)N1N=C(c2cccc(F)c2)CC1c1cccs1 (centres unmarked) [4-E22, 2-chloro-1-[3-(3-fluorophenyl)-5-(thiophen-2-yl)-4,5-dihydro-1H-pyrazol-1-yl]ethan-1-one] | 0.0972%
31 | CCc1cccc2c(C(=O)CCl)c[nH]c12 [10-C12, 2-chloro-1-(7-ethyl-1H-indol-3-yl)ethan-1-one] | 0.148%
32 | COCCNC(=O)C(C#N)=Cc1cccc2ccccc12 [8-L12, 2-cyano-N-(2-methoxyethyl)-3-(naphthalen-1-yl)prop-2-enamide] | 91.8%
33 | CC(=O)NCCc1ccc(C(=O)CCl)cc1 [10-N03, N-{2-[4-(2-chloroacetyl)phenyl]ethyl}acetamide] | 85.6%
34 | C=CC(=O)N1CCC(C(=O)NC[C@H]2C[C@@H](O)C2)(c2ccccc2)CC1 [3-O04, 4-phenyl-1-(prop-2-enoyl)-N-{[(1s,3s)-3-hydroxycyclobutyl]methyl}piperidine-4-carboxamide] | 118%
35 | C=CC(=O)N1CCC(C(=O)N[C@H]2CC[C@@H](S(C)(=O)=O)CC2)CC1 [2-J08, 1-(prop-2-enoyl)-N-[(1s,4s)-4-methanesulfonylcyclohexyl]piperidine-4-carboxamide] | 86.3%
36 | COc1ccccc1C=CC=C(C#N)C(=O)Nc1ccccn1 [9-L17, 2-cyano-5-(2-methoxyphenyl)-N-(pyridin-2-yl)penta-2,4-dienamide] | 91.4%
37 | C=CC(=O)N1Cc2c(C(=O)O)cnn2CC1C (centres unmarked) [3-N18, 6-methyl-5-(prop-2-enoyl)-4H,5H,6H,7H-pyrazolo[1,5-a]pyrazine-3-carboxylic acid] | 87%
38 | C=CC(=O)N1CCN(c2nc3ccccc3o2)CC1 [1-K05, 1-[4-(1,3-benzoxazol-2-yl)piperazin-1-yl]prop-2-en-1-one] | 75.6%
39 | CCN(Cc1ccc(Cl)s1)C(=O)CCl [6-M11, 2-chloro-N-[(5-chlorothiophen-2-yl)methyl]-N-ethylacetamide] | 0.655%
40 | NC(=O)c1ccccc1N1CCC(NC(=O)CCl)CC1 [7-P14, 2-[4-(2-chloroacetamido)piperidin-1-yl]benzamide hydrochloride] | 0.53%
41 | C=CC(=O)N(C)c1ccc(C#N)c(Cl)c1 [3-G05, N-(3-chloro-4-cyanophenyl)-N-methylprop-2-enamide] | 0.69%
42 | C=CC(=O)NCc1ccno1 [1-O07, N-[(1,2-oxazol-5-yl)methyl]prop-2-enamide] | 68.4%
43 | C=CC(=O)NC1CC2(CCC(C(=O)O)CC2)C1 (centres unmarked) [2-I16, 2-(prop-2-enamido)spiro[3.5]nonane-7-carboxylic acid] | 92.8%
44 | C=CC(=O)Nc1cccc(C(O)C(F)(F)F)c1 (centres unmarked) [1-M16, N-[3-(2,2,2-trifluoro-1-hydroxyethyl)phenyl]prop-2-enamide] | 102%
45 | NC(=O)Cc1ccc(C(=O)CCl)s1 [10-A21, 2-[5-(2-chloroacetyl)thiophen-2-yl]acetamide] | 46.6%
46 | C=CC(=O)N1C[C@H](NC(C)=O)[C@@H](c2ccnn2C)C1 (racemic) [2-M16, rac-N-[(3R,4S)-4-(1-methyl-1H-pyrazol-5-yl)-1-(prop-2-enoyl)pyrrolidin-3-yl]acetamide] | 96%
47 | C=CC(=O)NC(C)C(c1ccccc1Cl)n1cccn1 (centres unmarked) [2-J05, N-[1-(2-chlorophenyl)-1-(1H-pyrazol-1-yl)propan-2-yl]prop-2-enamide] | 84.5%
48 | COc1cc(Cl)ccc1CNC(=O)C(C#N)=Cc1ccco1 [9-E18, N-[(4-chloro-2-methoxyphenyl)methyl]-2-cyano-3-(furan-2-yl)prop-2-enamide] | 109%
49 | COC(=O)Cc1ccc(C(=O)CCl)s1 [10-L12, methyl 2-[5-(2-chloroacetyl)thiophen-2-yl]acetate] | 76.1%
50 | O=C(CCl)Cc1ccc(F)cc1Cl [10-E19, 1-chloro-3-(2-chloro-4-fluorophenyl)propan-2-one] | 1.31%
51 | N#CC(=Cc1ccco1)C(=O)Nc1cc2c(cc1Cl)NC(=O)CO2 [9-D20, N-(6-chloro-3-oxo-3,4-dihydro-2H-1,4-benzoxazin-7-yl)-2-cyano-3-(furan-2-yl)prop-2-enamide] | 87%
52 | O=C(CCl)NC(c1ccc(F)c(C(F)(F)F)c1)C1CC1 (centres unmarked) [7-B22, 2-chloro-N-{cyclopropyl[4-fluoro-3-(trifluoromethyl)phenyl]methyl}acetamide] | 0.631%
53 | C=CC(=O)NC1(c2cc(C)no2)CCOCC1 [1-F18, N-[4-(3-methyl-1,2-oxazol-5-yl)oxan-4-yl]prop-2-enamide] | 68.5%
